The record followed here is US20250288536A1, “PROTEIN PARTICLES INCLUDING AN ACTIVE AGENT AND METHODS OF MAKING AND USING THE SAME” (Dairy Mangement Inc., priority 2022, published 2025).

The nature of data set [1]: Particle size by DLS before and after ultrasonication (Example 2). The settings on record: after ultrasonication.
Data set [2] in a line: Scanning electron microscopy (SEM) particle size. The settings on record: 1 mg/mL dispersion.

Where two headings read alike, the source gives them in different places.

With `N[C@@H](Cc1c[nH]c2ccccc12)C(=O)O` [Trp, tryptophan], the “change of antioxidant activity (ABTS) with HPH treatment” value (0.01 mg/mL) is listed as “increased”. Also, the “ABTS radical scavenging activity” value (concentration above 0.1 mg/mL) is given as “around 100%”. Also, the “colloidal dispersion stability when adjusting pH to 7” value in data set [1] was “remained stable”.
Take α-lactalbumin: the “particle size by SEM (dry state)” value in data set [2] (HPH sample) is recorded as around 80 nm; in data set [2] (NOHPH sample), around 40 nm. For the same compound, for the setting “after vs before HPH”, the “change of antioxidant activity (ABTS) with HPH treatment” value was “increased”. The “ABTS radical scavenging activity” value (concentration of 0.5 mg/mL) amounted to 20%.
